Key:
CCRF-CEM = test: NCI cytotoxicity screen; assay type: cell-based, human; settings: Homo sapiens
MOLT-4 = test: NCI cytotoxicity screen; assay type: cell-based, human; settings: Homo sapiens
RPMI-8226 = test: NCI cytotoxicity screen; assay type: cell-based, human; settings: Homo sapiens
EKVX = test: NCI cytotoxicity screen; assay type: cell-based, human; settings: Homo sapiens
HOP-62 = test: NCI cytotoxicity screen; assay type: cell-based, human; settings: Homo sapiens
HOP-92 = test: NCI cytotoxicity screen; assay type: cell-based, human; settings: Homo sapiens
NCI-H23 = test: NCI cytotoxicity screen; assay type: cell-based, human; settings: Homo sapiens
NCI-H322M = test: NCI cytotoxicity screen; assay type: cell-based, human; settings: Homo sapiens
NCI-H460 = test: NCI cytotoxicity screen; assay type: cell-based, human; settings: Homo sapiens
COLO 205 = test: NCI cytotoxicity screen; assay type: cell-based, human; settings: Homo sapiens, COLO 205
HCC-2998 = test: NCI cytotoxicity screen; assay type: cell-based, human; settings: Homo sapiens, HCC 2998
HCT-116 = test: NCI cytotoxicity screen; assay type: cell-based, human; settings: Homo sapiens
HT29 = test: NCI cytotoxicity screen; assay type: cell-based, human; settings: Homo sapiens, HT-29
SF-295 = test: NCI cytotoxicity screen; assay type: cell-based, human; settings: Homo sapiens
SF-539 = test: NCI cytotoxicity screen; assay type: cell-based, human; settings: Homo sapiens
SNB-19 = test: NCI cytotoxicity screen; assay type: cell-based, human; settings: Homo sapiens
SNB-75 = test: NCI cytotoxicity screen; assay type: cell-based, human; settings: Homo sapiens
U251 = test: NCI cytotoxicity screen; assay type: cell-based, human; settings: Homo sapiens, U-251
LOX IMVI = test: NCI cytotoxicity screen; assay type: cell-based, human; settings: Homo sapiens
M14 = test: NCI cytotoxicity screen; assay type: cell-based, human; settings: Homo sapiens
MDA-MB-435 = test: NCI cytotoxicity screen; assay type: cell-based, human; settings: Homo sapiens
SK-MEL-2 = test: NCI cytotoxicity screen; assay type: cell-based, human; settings: Homo sapiens
SK-MEL-28 = test: NCI cytotoxicity screen; assay type: cell-based, human; settings: Homo sapiens
IGROV1 = test: NCI cytotoxicity screen; assay type: cell-based, human; settings: Homo sapiens, IGROV-1
OVCAR-4 = test: NCI cytotoxicity screen; assay type: cell-based, human; settings: Homo sapiens, OVCAR-4
OVCAR-5 = test: NCI cytotoxicity screen; assay type: cell-based, human; settings: Homo sapiens, OVCAR-5
OVCAR-8 = test: NCI cytotoxicity screen; assay type: cell-based, human; settings: Homo sapiens
SK-OV-3 = test: NCI cytotoxicity screen; assay type: cell-based, human; settings: Homo sapiens
786-0 = test: NCI cytotoxicity screen; assay type: cell-based, human; settings: Homo sapiens
ACHN = test: NCI cytotoxicity screen; assay type: cell-based, human; settings: Homo sapiens
CAKI-1 = test: NCI cytotoxicity screen; assay type: cell-based, human; settings: Homo sapiens
RXF 393 = test: NCI cytotoxicity screen; assay type: cell-based, human; settings: Homo sapiens
TK-10 = test: NCI cytotoxicity screen; assay type: cell-based, human; settings: Homo sapiens
UO-31 = test: NCI cytotoxicity screen; assay type: cell-based, human; settings: Homo sapiens
PC-3 = test: NCI cytotoxicity screen; assay type: cell-based, human; settings: Homo sapiens
DU-145 = test: NCI cytotoxicity screen; assay type: cell-based, human; settings: Homo sapiens
MCF7 = test: NCI cytotoxicity screen; assay type: cell-based, human; settings: Homo sapiens, MCF7
HS 578T = test: NCI cytotoxicity screen; assay type: cell-based, human; settings: Homo sapiens, Hs-578T
MDA-MB-468 = test: NCI cytotoxicity screen; assay type: cell-based, human; settings: Homo sapiens
[1] = tested on: Leukemia subpanel tumor cell lines; test: NCI cytotoxicity screen, subpanel; assay type: cell-based, human
[2] = tested on: NSC lung cancer subpanel tumor cell lines; test: NCI cytotoxicity screen, subpanel; assay type: cell-based, human
[3] = tested on: CNS cancer subpanel tumor cell lines; test: NCI cytotoxicity screen, subpanel; assay type: cell-based, human
[4] = tested on: Melanoma subpanel tumor cell lines; test: NCI cytotoxicity screen, subpanel; assay type: cell-based, human
[5] = tested on: Prostate cancer subpanel tumor cell lines; test: NCI cytotoxicity screen, subpanel; assay type: cell-based, human
HL-60(TB) = test: cells; settings: Homo sapiens
K-562 = test: cells; settings: Homo sapiens, K562
[6] = subpanel value, NSC lung cancer

C#Cc1cccc(Nc2ncnc3cc(OCCOC)c(OCCOC)cc23)c1 [Erlotinib, reference compound]
GI50 (CCRF-CEM): 15.8 µM
GI50 (MOLT-4): 5.01 µM
GI50 (RPMI-8226): 5.01 µM
GI50 (EKVX): 0.005 µM
GI50 (HOP-62): 12.6 µM
GI50 (HOP-92): 6.3 µM
GI50 (NCI-H23): 19.9 µM
GI50 (NCI-H322M): 0.05 µM
GI50 (NCI-H460): 5.01 µM
GI50 (COLO 205): 31.6 µM
GI50 (HCC-2998): 79.3 µM
GI50 (HCT-116): 5.01 µM
GI50 (HT29): 50.1 µM
GI50 (SF-295): 15.8 µM
GI50 (SF-539): 12.6 µM
GI50 (SNB-19): 3.98 µM
GI50 (SNB-75): 12.6 µM
GI50 (U251): 19.9 µM
GI50 (LOX IMVI): 5.01 µM
GI50 (M14): 6.3 µM
GI50 (MDA-MB-435): 15.8 µM
GI50 (SK-MEL-2): 12.6 µM
GI50 (SK-MEL-28): 31.6 µM
GI50 (IGROV1): 0.25 µM
GI50 (OVCAR-4): 19.9 µM
GI50 (OVCAR-5): 19.9 µM
GI50 (OVCAR-8): 7.94 µM
GI50 (SK-OV-3): 0.39 µM
GI50 (786-0): 5.01 µM
GI50 (ACHN): 0.15 µM
GI50 (CAKI-1): 0.1 µM
GI50 (RXF 393): 6.3 µM
GI50 (TK-10): 0.1 µM
GI50 (UO-31): 1.99 µM
GI50 (PC-3): 50.1 µM
GI50 (DU-145): 1.58 µM
GI50 (MCF7): 100 µM
GI50 (HS 578T): 6.3 µM
GI50 (MDA-MB-468): 0.2 µM
CC50 ([1]; Homo sapiens, read-out: LC50): > 100 µM
GI50 ([1]; Homo sapiens, subpanel value, Leukemia): 27.9 µM
GI50 ([1]; subpanel value, Leukemia): 27.9 µM
TGI ([1]; subpanel value, Leukemia): 96.57 µM
CC50 ([2]; Homo sapiens, read-out: LC50): 97.7 µM
GI50 ([2]; Homo sapiens, subpanel value, NSC lung cancer): 13.1 µM
GI50 [2, 6]: 13.1 µM
TGI [2, 6]: 73.76 µM
CC50 ([3]; Homo sapiens, read-out: LC50): > 100 µM
GI50 ([3]; Homo sapiens, subpanel value, CNS cancer): 17 µM
GI50 ([3]; subpanel value, CNS cancer): 17 µM
TGI ([3]; subpanel value, CNS cancer): 82.11 µM
CC50 ([4]; Homo sapiens, read-out: LC50): 93.3 µM
GI50 ([4]; Homo sapiens, subpanel value, Melanoma): 23.7 µM
GI50 ([4]; subpanel value, Melanoma): 23.7 µM
TGI ([4]; subpanel value, Melanoma): 77.89 µM
CC50 ([5]; Homo sapiens, read-out: LC50): > 100 µM
GI50 ([5]; Homo sapiens, subpanel value, Prostate cancer): 20.9 µM
TGI ([5]; subpanel value, Prostate cancer): c (Compounds showed values > 100 μM)
GI50 (HL-60(TB)): 5.01 µM
GI50 (K-562): 15.5 µM

— publication PMC11702208 (RSC Advances, 2025)
